Assay results taken from patent US20230011571A1, “SMALL MOLECULE FURIN INHIBITORS FOR TREATING INFECTIOUS DISEASES” (BP Asset V, Inc., priority 2019, published 2023).
Counter-ions that a name gives are not always drawn.

Experiments:
Assay type in all cases: cell-based
[1] = tested on: Chikungunya virus (CHIKV); assay: microbe, parasite or virus in culture; conditions: Chikungunya virus, Vero, 48 h, read-out: Percent viral inhibition CHKV
dengue virus (DENV) = assay: microbe, parasite or virus in culture; conditions: Dengue virus, Vero, 120 h, read-out: Percent viral inhibition DENY
Marburg virus (MARV) = assay: organism not typed; conditions: Vero, 72 h, read-out: Percent viral inhibition MARV

In the case of CNC(=O)CN1CCN(Cc2cc(Oc3ccc(N4CCNCC4)nc3)nc(-c3cc(Cl)cc(Cl)c3)c2)CC1 [Example 1, 2-(4-((2-(3,5-dichlorophenyl)-6-((6-(piperazin-1-yl)pyridin-3-yl)oxy)pyridin-4-yl)methyl)piperazin-1-yl)-N-methylacetamide], the inhibition at 1 µM [1] is reported as 6.99%, the inhibition at 1 µM (dengue virus (DENV)) is reported as 0% and the inhibition at 1 µM (Marburg virus (MARV)) is reported as 0%.
Work on CC(=O)NCC1(O)CCN(Cc2cc(Oc3ccc(N4CCNCC4)nc3)nc(-c3cc(Cl)cc(Cl)c3)c2)CC1 [Example 2, N-((1-((2-(3,5-dichlorophenyl)-6-((6-(piperazin-1-yl)pyridin-3-yl)oxy)pyridin-4-yl)methyl)-4-hydroxy-piperidin-4-yl)methyl)acetamide] yielded an inhibition at 1 µM [1] of 33.8%, an inhibition at 1 µM (dengue virus (DENV)) of 34.3% and an inhibition at 1 µM (Marburg virus (MARV)) of 60.4%.
O=C(O)CC1CCN(Cc2cc(Oc3ccc(N4CCNCC4)nc3)nc(-c3cc(Cl)cc(Cl)c3)c2)CC1 [Example 4, 2-(1-((2-(3,5-dichlorophenyl)-6-((6-(piperazin-1-yl)pyridin-3-yl)oxy)pyridin-4-yl)methyl)piperidin-4-yl) acetic acid] was tested, and the inhibition at 1 µM [1] was 18.4%, the inhibition at 1 µM (dengue virus (DENV)) was 16.6% and the inhibition at 1 µM (Marburg virus (MARV)) was 70.8%.
In the case of COC(=O)NCC1(O)CCN(Cc2cc(Oc3ccc(N4CCNCC4)nc3)nc(-c3cc(Cl)cc(Cl)c3)c2)CC1 [Example 6, methyl ((1-((2-(3,5-dichlorophenyl)-6-((6-(piperazin-1-yl)pyridin-3-yl)oxy)pyridin-4-yl)methyl)-4-hydroxypiperidin-4-yl)methyl)carbamate], the inhibition at 1 µM [1] is reported as 0%, the inhibition at 1 µM (dengue virus (DENV)) is reported as 0% and the inhibition at 1 µM (Marburg virus (MARV)) is reported as 0%.
Work on O=S(=O)(O)CCC1CCN(Cc2cc(Oc3ccc(N4CCNCC4)nc3)nc(-c3cc(Cl)cc(Cl)c3)c2)CC1 [Example 7, 2-(1-((2-(3,5-dichlorophenyl)-6-((6-(piperazin-1-yl)pyridin-3-yl)oxy)pyridin-4-yl)methyl)piperidin-4-yl) ethanesulfonic acid] yielded an inhibition at 1 µM [1] of 9.36%, an inhibition at 1 µM (dengue virus (DENV)) of 12.9% and an inhibition at 1 µM (Marburg virus (MARV)) of 51.9%.
Compound O=S(=O)(O)CC1CCN(Cc2cc(Oc3ccc(N4CCNCC4)nc3)nc(-c3cc(Cl)cc(Cl)c3)c2)CC1 [Example 8, (1-((2-(3,5-dichlorophenyl)-6-((6-(piperazin-1-yl)pyridin-3-yl)oxy)pyridin-4-yl)methyl)piperidin-4-yl)methanesulfonic acid] has an inhibition at 1 µM [1] of 1.77%, an inhibition at 1 µM (dengue virus (DENV)) of 14.7% and an inhibition at 1 µM (Marburg virus (MARV)) of 10.9%.
With CC(=O)NCC1CCN(Cc2cc(Oc3ccc(N4CCN(CC(=O)O)CC4)nc3)nc(-c3cc(Cl)cc(Cl)c3)c2)CC1 [Example 10] the inhibition at 1 µM [1] was 13.1%, the inhibition at 1 µM (dengue virus (DENV)) was 8.5% and the inhibition at 1 µM (Marburg virus (MARV)) was 34.8%.
CC(=O)NCC1CCN(Cc2cc(Oc3ccc(N4CCN(CCC(=O)O)CC4)nc3)nc(-c3cc(Cl)cc(Cl)c3)c2)CC1 [Example 11, 3-(4-(5-((4-((4-(Acetamidomethyl)piperidin-1-yl)methyl)-6-(3,5-dichlorophenyl)pyridin-2-yl)oxy)pyridin-2-yl)piperazin-1-yl)propanoic acid, 4 hydrochloride] was tested, and the inhibition at 1 µM [1] was 17.9%, the inhibition at 1 µM (dengue virus (DENV)) was 30.2% and the inhibition at 1 µM (Marburg virus (MARV)) was 41.6%.
CC(=O)NCC1CCN(Cc2cc(Oc3ccc(N4CCN(CCS(C)(=O)=O)CC4)nc3)nc(-c3cc(Cl)cc(Cl)c3)c2)CC1 [Example 12, N-((1-((2-(3,5-dischlorophenyl)-6-((6-(4-(2-(methylsulfonyl)ethyl)piperazin-1-yl)pyridin-3-yl)oxy)pyridin-4-yl)methyl)piperidin-4-yl)methyl)acetamide] gave an inhibition at 1 µM [1] of 24.7%, an inhibition at 1 µM (dengue virus (DENV)) of 58.3% and an inhibition at 1 µM (Marburg virus (MARV)) of 44.5%.
CC(=O)NCC1CCN(Cc2cc(Oc3ccc(N4CCN(CCC(N)=O)CC4)nc3)nc(-c3cc(Cl)cc(Cl)c3)c2)CC1 [Example 13, 3-(4-(5-((4-((4-(acetamidomethyl)piperidin-1-yl)methyl)-6-(3,5-dichlorophenyl)pyridin-2-yl)oxy)pyridin-2-yl)piperazin-1-yl)propanamide] showed an inhibition at 1 µM [1] of 15.9%, an inhibition at 1 µM (dengue virus (DENV)) of 26.5% and an inhibition at 1 µM (Marburg virus (MARV)) of 25.4%.
With CC(=O)NCC1CCN(Cc2cc(Oc3ccc(N4CCN(CCc5nnn[nH]5)CC4)nc3)nc(-c3cc(Cl)cc(Cl)c3)c2)CC1 [Example 14] the inhibition at 1 µM [1] was 3.02%, the inhibition at 1 µM (dengue virus (DENV)) was 0% and the inhibition at 1 µM (Marburg virus (MARV)) was 17.3%.
CC(=O)NCC1CCN(Cc2cc(Oc3ccc(N4CCN(C(C)CCS(C)(=O)=O)CC4)nc3)nc(-c3cc(Cl)cc(Cl)c3)c2)CC1 (stereo not drawn) [Example 16] was tested, and the inhibition at 1 µM [1] was 4.14%, the inhibition at 1 µM (dengue virus (DENV)) was 41.7% and the inhibition at 1 µM (Marburg virus (MARV)) was 28.6%.
In the case of CNC(=O)NCC1CCN(Cc2cc(Oc3cnc(N4CCN(CCC(C)[S+](C)[O-])CC4)nc3)nc(-c3cc(Cl)cc(Cl)c3)c2)CC1 (stereo not drawn) [Example 17, 1-((1-((2-(3,5-chlorophenyl)-6-((2-(4-(3-(methylsulfinyl)butyl)piperazin-1-yl)pyrimidin-5-yl)oxy)pyridin-4-yl)methyl)piperidin-4-yl)methyl)-3-methylurea], the inhibition at 1 µM [1] is reported as 7.16%, the inhibition at 1 µM (dengue virus (DENV)) is reported as 57.4% and the inhibition at 1 µM (Marburg virus (MARV)) is reported as 52.9%.
CC(=O)NCC1CCN(Cc2cc(Oc3cnc(N4CCN(C(C)CCS(C)(=O)=O)CC4)nc3)nc(-c3cc(Cl)cc(Cl)c3)c2)CC1 (stereo not drawn) [Example 19, N-((1-((2-(3,5-dichlorophenyl)-6-((2-(4-(4-(methylsulfonyl)butan-2-yl)piperazin-1-yl)pyrimidin-5-yl)oxy)pyridin-4-yl)methyl)piperidin-4-yl)methyl)acetamide] showed an inhibition at 1 µM [1] of 21.6%, an inhibition at 1 µM (dengue virus (DENV)) of 35.5% and an inhibition at 1 µM (Marburg virus (MARV)) of 79.8%.
Work on CC(CO)N1CCN(c2ncc(Oc3cc(CN4CCC(CC(=O)O)CC4)cc(-c4cc(Cl)cc(Cl)c4)n3)cn2)CC1 (stereo not drawn) [Example 21, 2-(1-((2-(3,5-dichlorophenyl)-6-((2-(4-(1-hydroxypropan-2-yl)piperazin-1-yl)pyrimidin-5-yl)oxy)pyridin-4-yl)methyl)piperidin-4-yl)acetic acid] yielded an inhibition at 1 µM [1] of 26.2%, an inhibition at 1 µM (dengue virus (DENV)) of 8.18% and an inhibition at 1 µM (Marburg virus (MARV)) of 46.4%.
In the case of O=C(O)CC1CCN(Cc2cc(Oc3cnc(N4CCN(C5CC(O)C5)CC4)nc3)nc(-c3cc(Cl)cc(Cl)c3)c2)CC1 (stereo not drawn) [Example 22, 2-(1-((2-(3,5-dichlorophenyl)-6-((2-(4-(3-hydroxycyclobutyl)piperazin-1-yl)pyrimidin-5-yl)oxy)pyridin-4-yl)methyl)piperidin-4-yl)acetic acid], the inhibition at 1 µM [1] is reported as 26.8%, the inhibition at 1 µM (dengue virus (DENV)) is reported as 64.4% and the inhibition at 1 µM (Marburg virus (MARV)) is reported as 52.5%.
O=C(O)CC1CCN(Cc2cc(Oc3cnc(N4CCN(C(CO)CO)CC4)nc3)nc(-c3cc(Cl)cc(Cl)c3)c2)CC1 [Example 23, 2-(1-((2-(3,5-dichlorophenyl)-6-((2-(4-(1,3-dihydroxypropan-2-yl)piperazin-1-yl)pyrimidin-5-yl)oxy)pyridin-4-yl)methyl)piperidin-4-yl)acetic acid] showed an inhibition at 1 µM [1] of 21.6%, an inhibition at 1 µM (dengue virus (DENV)) of 11% and an inhibition at 1 µM (Marburg virus (MARV)) of 52.5%.
For C[C@]1(O)C[C@@H](N2CCN(c3ncc(Oc4cc(CN5CCC(CC(=O)O)CC5)cc(-c5cc(Cl)cc(Cl)c5)n4)cn3)CC2)C1 [Example 24, 2-(1-((2-(3,5-dichlorophenyl)-6-((2-(4-((1s,3s)-3-hydroxy-3-methylcyclobutyl)piperazin-1-yl)pyrimidin-5-yl)oxy)pyridin-4-yl)methyl)piperidin-4-yl)acetic acid], the inhibition at 1 µM [1] was 34.6%, the inhibition at 1 µM (dengue virus (DENV)) was 25.8% and the inhibition at 1 µM (Marburg virus (MARV)) was 63.1%.
Compound C[C@]1(O)C[C@H](N2CCN(c3ncc(Oc4cc(CN5CCC(CC(=O)O)CC5)cc(-c5cc(Cl)cc(Cl)c5)n4)cn3)CC2)C1 [Example 25, 2-(1-((2-(3,5-dichlorophenyl)-6-((2-(4-((1r,3r)-3-hydroxy-3-methylcyclobutyl)piperazin-1-yl)pyrimidin-5-yl)oxy)pyridin-4-yl)methyl)piperidin-4-yl)acetic acid] has an inhibition at 1 µM [1] of 26.3%, an inhibition at 1 µM (dengue virus (DENV)) of 13.7% and an inhibition at 1 µM (Marburg virus (MARV)) of 65.5%.
CC(=O)NCC1CCN(Cc2cc(Oc3ccc(N4CCN([C@H]5C[C@@H](NS(C)(=O)=O)C5)CC4)nc3)nc(-c3cc(Cl)cc(Cl)c3)c2)CC1 [Example 27, N-((1-((2-(3,5-dichlorophenyl)-6-((6-(4-((cis)-3-(methylsulfonamido)cyclobutyl)piperazin-1-yl)pyridin-3-yl)oxy)pyridin-4-yl)methyl)piperidin-4-yl)methyl)acetamide] gave an inhibition at 1 µM [1] of 26.8%, an inhibition at 1 µM (dengue virus (DENV)) of 51.1% and an inhibition at 1 µM (Marburg virus (MARV)) of 50.3%.
CC(=O)NCC1CCN(Cc2cc(Oc3ccc(N4CCN(CCP(=O)(O)O)CC4)nc3)nc(-c3cc(Cl)cc(Cl)c3)c2)CC1 [Example 30, (2-(4-(5-((4-((4-(acetamidomethyl)piperidin-1-yl)methyl)-6-(3,5-dichlorophenyl)pyridin-2-yl)oxy)pyridin-2-yl)piperazin-1-yl)ethyl)phosphonic acid] was tested, and the inhibition at 1 µM [1] was 10.1%, the inhibition at 1 µM (dengue virus (DENV)) was 44.3% and the inhibition at 1 µM (Marburg virus (MARV)) was 15.5%.
CC(=O)NCC1CCN(Cc2cc(Oc3ccc(N4CCN(CCOC(N)=O)CC4)nc3)nc(-c3cc(Cl)cc(Cl)c3)c2)CC1 [Example 31, 2-(4-(5-((4-((4-(acetamidomethyl)piperidin-1-yl)methyl)-6-(3,5-dichlorophenyl)pyridin-2-yl)oxy)pyridin-2-yl)piperazin-1-yl)ethylcarbamate] was tested, and the inhibition at 1 µM [1] was 18.7%, the inhibition at 1 µM (dengue virus (DENV)) was 38.9% and the inhibition at 1 µM (Marburg virus (MARV)) was 61.4%.
Work on CC(=O)NCC1CCN(Cc2cc(Oc3ccc(N4CCN(CCN(C)S(C)(=O)=O)CC4)nc3)nc(-c3cc(Cl)cc(Cl)c3)c2)CC1 [Example 32, N-((1-((2-(3,5-dichlorophenyl)-6-((6-(4-(2-(N-methylmethylsulfonamido)ethyl)piperazin-1-yl)pyridin-3-yl)oxy)pyridin-4-yl)methyl)piperidin-4-yl)methyl)acetamide] yielded an inhibition at 1 µM [1] of 49.4%, an inhibition at 1 µM (dengue virus (DENV)) of 34.2% and an inhibition at 1 µM (Marburg virus (MARV)) of 63.5%.
CC(=O)NCC1CCN(Cc2cc(Oc3ccc(N4CCN(C(=O)CCC(=O)O)CC4)nc3)nc(-c3cc(Cl)cc(Cl)c3)c2)CC1 [Example 33, 4-(4-(5-((4-((4-(acetamidomethyl)piperidin-1-yl)methyl)-6-(3,5-dichlorophenyl)pyridin-2-yl)oxy)pyridin-2-yl)piperazin-1-yl)-4-oxobutanoic acid] gave an inhibition at 1 µM [1] of 36.5%, an inhibition at 1 µM (dengue virus (DENV)) of 49.4% and an inhibition at 1 µM (Marburg virus (MARV)) of 67.3%.
